pKi: −log10 of the molar value.
Biological target: T1, purified catalytic domain of recombinant human TACE (rhTACEc) (Homo sapiens, UniProt P78536, N452Q/S266A)
T1 construct: rhTACEc, Residue 215 to 477 with two mutation (S266A and N4520) and a 6×His tail; 6xHis (C); made in house; host or cells: baculovirus/Hi5 insect cells
Assay: TACE kinetic assay, cleavage of internally quenched fluorescent peptide substrate SPDL-3
Type: biochemical
Details: TACE inhibition, Table 1001; read-out: Ki Rating

T1 sequence (P78536 215-477 S266A/N452Q limits assumed): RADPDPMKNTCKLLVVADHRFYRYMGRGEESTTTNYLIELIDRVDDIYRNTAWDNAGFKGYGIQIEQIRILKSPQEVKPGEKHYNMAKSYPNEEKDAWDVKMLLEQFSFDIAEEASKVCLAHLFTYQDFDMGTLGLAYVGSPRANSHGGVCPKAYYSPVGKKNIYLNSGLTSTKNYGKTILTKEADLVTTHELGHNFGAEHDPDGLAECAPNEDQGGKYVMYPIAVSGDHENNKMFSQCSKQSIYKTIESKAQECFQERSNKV

Row | pKi | Structure (SMILES)
1 | > 8.30 | COc1ccc2c(c1)C(=O)N(C[C@@]1(C#Cc3cccnc3)NC(=O)NC1=O)C2 [Compound 400B]
2 | > 8.30 | COc1ccc2c(c1)C(=O)N(C[C@@]1(C#Cc3ccc(F)cc3)NC(=O)NC1=O)C2 [Compound 411]
3 | > 8.30 | COc1ccc2c(c1)C(=O)N(C[C@@]1(C#Cc3ccc[nH]c3=O)NC(=O)NC1=O)C2 [Compound 417C]
4 | > 8.30 | COc1ccc2c(c1)C(=O)N(C[C@@]1(C#Cc3ccc4nn(C)cc4c3)NC(=O)NC1=O)C2 [Compound 421]
5 | > 8.30 | COc1ccc2c(c1)C(=O)N(C[C@@]1(C#Cc3ccc4nc(C)ccc4c3)NC(=O)NC1=O)C2 [Compound 422]
6 | > 8.30 | COc1ccc2c(c1)C(=O)N(C[C@@]1(C#Cc3ccc4cn(C)nc4c3)NC(=O)NC1=O)C2 [Compound 424]
7 | > 8.30 | COc1ccc2c(c1)C(=O)N(C[C@@]1(C#Cc3cncc4ccccc34)NC(=O)NC1=O)C2 [Compound 425]
8 | > 8.30 | COc1ccc2c(c1)C(=O)N(C[C@@]1(C#Cc3cncc(F)c3)NC(=O)NC1=O)C2 [Compound 430]
9 | > 8.30 | COc1ccc2c(c1)C(=O)N(C[C@@]1(C#Cc3ccc(F)c(C)c3)NC(=O)NC1=O)C2 [Compound 432]
10 | > 8.30 | COc1ccc2c(c1)C(=O)N(C[C@@]1(C#Cc3ccc(F)cc3Cl)NC(=O)NC1=O)C2 [Compound 433]
11 | > 8.30 | COc1ccc2c(c1)C(=O)N(C[C@@]1(C#Cc3cc(O)c(F)c(F)c3)NC(=O)NC1=O)C2 [Compound 435]
12 | > 8.30 | COc1ccc2c(c1)C(=O)N(C[C@@]1(C#Cc3cccc(Cl)c3C)NC(=O)NC1=O)C2 [Compound 438]
13 | > 8.30 | COc1ccc2c(c1)C(=O)N(C[C@@]1(C#Cc3cc(C)cc(F)c3)NC(=O)NC1=O)C2 [Compound 439]
14 | > 8.30 | COc1ccc2c(c1)C(=O)N(C[C@@]1(C#Cc3cccc4ncccc34)NC(=O)NC1=O)C2 [Compound 441]
15 | > 8.30 | COc1ccc2c(c1)C(=O)N(C[C@@]1(C#Cc3cccc4cnccc34)NC(=O)NC1=O)C2 [Compound 442]
16 | > 8.30 | COc1ccc2c(c1)C(=O)N(C[C@@]1(C#Cc3ccc4c(cnn4C)c3)NC(=O)NC1=O)C2 [Compound 444]
17 | > 8.30 | COc1ccc2c(c1)C(=O)N(C[C@@]1(C#Cc3cccc(C#N)c3)NC(=O)NC1=O)C2 [Compound 447]

Row | pKi | Structure (SMILES)
18 | > 8.30 | COc1ccc2c(c1)C(=O)N(C[C@@]1(C#Cc3cc(Cl)cc(Cl)c3)NC(=O)NC1=O)C2 [Compound 449]
19 | > 8.30 | COc1ccc2c(c1)C(=O)N(C[C@@]1(C#Cc3cncnc3)NC(=O)NC1=O)C2 [Compound 450]
20 | > 8.30 | COc1ccc2c(c1)C(=O)N(C[C@@]1(C#Cc3cscn3)NC(=O)NC1=O)C2 [Compound 455]
21 | > 8.30 | COc1ccc2c(c1)C(=O)N(C[C@@]1(C#Cc3c(C)nn(C)c3C)NC(=O)NC1=O)C2 [Compound 457]
22 | > 8.30 | COc1ccc2c(c1)C(=O)N(C[C@@]1(C#Cc3cc(F)cc(C#N)c3)NC(=O)NC1=O)C2 [Compound 458]
23 | > 8.30 | COc1ccc2c(c1)C(=O)N(C[C@@]1(C#Cc3cccc(C(F)(F)F)c3)NC(=O)NC1=O)C2 [Compound 459]
24 | > 8.30 | COc1ccc2c(c1)C(=O)N(C[C@@]1(C#Cc3ccc4nccn4c3)NC(=O)NC1=O)C2 [Compound 460]
25 | > 8.30 | COc1ccc2c(c1)C(=O)N(C[C@@]1(C#Cc3cc(Cl)cc(C#N)c3)NC(=O)NC1=O)C2 [Compound 462]
26 | > 8.30 | COc1ccc2c(c1)C(=O)N(C[C@@]1(C#Cc3cccs3)NC(=O)NC1=O)C2 [Compound 463]
27 | > 8.30 | COc1ccc2c(c1)C(=O)N(C[C@@]1(C#Cc3ccsc3)NC(=O)NC1=O)C2 [Compound 464]
28 | > 8.30 | COc1ccc2c(c1)C(=O)N(C[C@@]1(C#Cc3csc(C(C)C)n3)NC(=O)NC1=O)C2 [Compound 465]
29 | > 8.30 | COc1ccc2c(c1)C(=O)N(C[C@@]1(C#Cc3csc(C)n3)NC(=O)NC1=O)C2 [Compound 467]
30 | > 8.30 | COc1ccc2c(c1)C(=O)N(C[C@@]1(C#Cc3ncnc4ccccc34)NC(=O)NC1=O)C2 [Compound 470]
31 | > 8.30 | COc1ccc2c(c1)C(=O)N(C[C@@]1(C#Cc3cnc(C)s3)NC(=O)NC1=O)C2 [Compound 471]
32 | > 8.30 | COc1ccc2c(c1)C(=O)N(C[C@@]1(C#Cc3cncc(-n4ccnc4C)c3)NC(=O)NC1=O)C2 [Compound 482C]
33 | > 8.30 | COc1ccc2c(c1)C(=O)N(C[C@@]1(C#Cc3ccc(OC(F)(F)F)cc3)NC(=O)NC1=O)C2 [Compound 484]

Continued, compound first:

Row | Structure (SMILES) | pKi
34 | COc1ccc2c(c1)C(=O)N(CC1(C#Cc3cnn(C)c3)NC(=O)NC1=O)C2 (centres unmarked) [Compound 312B] | > 8.30
35 | COc1ccc2c(c1)C(=O)N(CC1(C#Cc3cccnc3)NC(=O)NC1=O)C2 (centres unmarked) [Compound 312] | > 8.30
36 | COc1ccc2c(c1)C(=O)N(CC1(C#Cc3ccc(F)cc3F)NC(=O)NC1=O)C2 (centres unmarked) [Compound 315A] | > 8.30
37 | COc1ccc2c(c1)C(=O)N(CC1(C#Cc3ccc(F)cc3)NC(=O)NC1=O)C2 (centres unmarked) [Compound 315] | > 8.30
38 | C#C[C@]1(CN2Cc3ccc(OC)cc3C2=O)NC(=O)NC1=O [Compound 401] | > 8.30
39 | COc1ccc2c(c1)C(=O)N(C[C@@]1(C#Cc3cncc(-c4cnn(C)c4)c3)NC(=O)NC1=O)C2 [Compound 409C] | > 8.30
40 | COc1ccc2c(c1)C(=O)N(C[C@@]1(C#Cc3cncc(N4CCCC4)c3)NC(=O)NC1=O)C2 [Compound 410B] | > 8.30
41 | CNc1nc2ccc(C#C[C@]3(CN4Cc5ccc(OC)cc5C4=O)NC(=O)NC3=O)cc2s1 [Compound 412D] | > 8.30
42 | COc1ccc2c(c1)C(=O)N(C[C@@]1(C#Cc3ccc(CN4CCCC4)nc3)NC(=O)NC1=O)C2 [Compound 413D] | > 8.30
43 | COc1ccc2c(c1)C(=O)N(C[C@@]1(C#Cc3ccc(C4(N)CC4)nc3)NC(=O)NC1=O)C2 [Compound 414B] | 7.60 to 8.30
44 | COc1ccc2c(c1)C(=O)N(C[C@@]1(C#Cc3ccc4cnn(C)c4c3)NC(=O)NC1=O)C2 [Compound 423] | > 8.30
45 | COc1ccc2c(c1)C(=O)N(C[C@@]1(C#Cc3ccc(F)c(C(F)(F)F)c3)NC(=O)NC1=O)C2 [Compound 426] | > 8.30
46 | COc1ccc2c(c1)C(=O)N(C[C@@]1(C#Cc3ccc(C)c(F)c3)NC(=O)NC1=O)C2 [Compound 427] | > 8.30
47 | COc1ccc2c(c1)C(=O)N(C[C@@]1(C#Cc3ccc(C)c(Cl)c3)NC(=O)NC1=O)C2 [Compound 428] | > 8.30
48 | COc1ccc2c(c1)C(=O)N(C[C@@]1(C#Cc3cccc(OC(F)(F)F)c3)NC(=O)NC1=O)C2 [Compound 429] | > 8.30
49 | COc1ccc2c(c1)C(=O)N(C[C@@]1(C#Cc3cc(F)c(F)c(OC)c3)NC(=O)NC1=O)C2 [Compound 434] | > 8.30
50 | COc1ccc2c(c1)C(=O)N(C[C@@]1(C#Cc3ccc(C(F)(F)F)c(F)c3)NC(=O)NC1=O)C2 [Compound 436] | > 8.30
51 | COc1ccc2c(c1)C(=O)N(C[C@@]1(C#Cc3cccc(F)c3C)NC(=O)NC1=O)C2 [Compound 437] | > 8.30
52 | COc1ccc2c(c1)C(=O)N(C[C@@]1(C#Cc3cc(F)cc(C(F)(F)F)c3)NC(=O)NC1=O)C2 [Compound 440] | > 8.30
53 | COc1ccc2c(c1)C(=O)N(C[C@@]1(C#Cc3cnc4ccccc4c3)NC(=O)NC1=O)C2 [Compound 443] | > 8.30

Row | Structure (SMILES) | pKi
54 | COc1ccc2c(c1)C(=O)N(C[C@@]1(C#Cc3cccc(F)c3)NC(=O)NC1=O)C2 [Compound 445] | > 8.30
55 | COc1ccc2c(c1)C(=O)N(C[C@@]1(C#Cc3cccc(Cl)c3)NC(=O)NC1=O)C2 [Compound 446] | > 8.30
56 | COc1ccc2c(c1)C(=O)N(C[C@@]1(C#Cc3cc(F)cc(F)c3)NC(=O)NC1=O)C2 [Compound 448] | > 8.30
57 | COc1ccc2c(c1)C(=O)N(C[C@@]1(C#Cc3cccc(S(C)(=O)=O)c3)NC(=O)NC1=O)C2 [Compound 451] | > 8.30
58 | COc1ccc2c(c1)C(=O)N(C[C@@]1(C#Cc3ccc(Cl)c(F)c3)NC(=O)NC1=O)C2 [Compound 452] | > 8.30
59 | COc1ccc2c(c1)C(=O)N(C[C@@]1(C#Cc3cnc(N)nc3)NC(=O)NC1=O)C2 [Compound 453] | > 8.30
60 | COc1ccc2c(c1)C(=O)N(C[C@@]1(C#Cc3nccs3)NC(=O)NC1=O)C2 [Compound 454] | > 8.30
61 | COc1ccc2c(c1)C(=O)N(C[C@@]1(C#Cc3cc(F)cc(Cl)c3)NC(=O)NC1=O)C2 [Compound 456] | > 8.30
62 | COc1ccc2c(c1)C(=O)N(C[C@@]1(C#Cc3cc(F)cc(F)c3F)NC(=O)NC1=O)C2 [Compound 461] | > 8.30
63 | COc1ccc2c(c1)C(=O)N(C[C@@]1(C#Cc3c(F)ccc(F)c3F)NC(=O)NC1=O)C2 [Compound 466] | > 8.30
64 | COc1ccc2c(c1)C(=O)N(C[C@@]1(C#Cc3ncccn3)NC(=O)NC1=O)C2 [Compound 468] | > 8.30
65 | COc1ccc2c(c1)C(=O)N(C[C@@]1(C#Cc3cnccn3)NC(=O)NC1=O)C2 [Compound 469] | > 8.30
66 | COc1ccc2c(c1)C(=O)N(C[C@@]1(C#Cc3ccc(C4CC4)nc3)NC(=O)NC1=O)C2 [Compound 472] | > 8.30
67 | COc1ccc2c(c1)C(=O)N(C[C@@]1(C#Cc3cncc(C4(N)CC4)c3)NC(=O)NC1=O)C2 [Compound 480] | > 8.30
68 | COc1ccc2c(c1)C(=O)N(C[C@@]1(C#Cc3cncc(C#N)c3)NC(=O)NC1=O)C2 [Compound 481] | > 8.30
69 | COc1ccc2c(c1)C(=O)N(C[C@@]1(C#Cc3cncc(-n4cccn4)c3)NC(=O)NC1=O)C2 [Compound 482B] | > 8.30
70 | COc1ccc2c(c1)C(=O)N(C[C@@]1(C#Cc3cncc(N4CCOCC4)c3)NC(=O)NC1=O)C2 [Compound 482] | > 8.30
71 | COc1ccc2c(c1)C(=O)N(C[C@@]1(C#Cc3ccc(F)c(F)c3)NC(=O)NC1=O)C2 [Compound 483] | > 8.30
72 | COc1ccc2c(c1)C(=O)N(C[C@@]1(C#Cc3ccc(Cl)cc3)NC(=O)NC1=O)C2 [Compound 485] | > 8.30

Same assay, conditions: rhTACEc 70 pM, 30 μM SPDL-3, 90 min pre-incubation at 25° C.; read-out: Ki (nM), TACE inhibitory activity

Row | Ki [nM] | Structure (SMILES)
73 | 0.44 | COc1ccc2c(c1)C(=O)N(C[C@@]1(C#Cc3cccnc3)NC(=O)NC1=O)C2 [Compound 400B]
74 | 0.11 | COc1ccc2c(c1)C(=O)N(C[C@@]1(C#Cc3cccc4cnccc34)NC(=O)NC1=O)C2 [Compound 442]
